Patent publication US7422793B2, “Non-toxic corrosion-protection rinses and seals based on rare earth elements” (University of Dayton, priority 2002, dated 2008)
Converted amounts (≈) assume the structure as drawn. Like-named read-outs stand apart in the source and are kept apart here.

Columns and labels:
[1] = cited from earlier work; for oxidation-reduction potential: in acid solution, couple to the trivalent ion; for calculated redox potential: in acidic solution, Nugent et al. 1971
[2] = pH change on placing the compound into deionized water of pH 7; assay type: physicochemical; details: simple laboratory experiment
Source text: A simple laboratory experiment confirms this effect. […] However, if icosahedral Ce(NO3)6^2− (note that this ion contains no hydroxide) is placed into deionized water of pH 7, a quite remarkable pH drop to −1 can be observed. The released tetravalent cerium ions will scavenge virtually all of the available OH^− ions in solution (possibly even degrading H2O itself to obtain […]), resulting in this dramatic pH drop.

[3] = cited from earlier work
[4] = fluoride preparative agents, at or near 25° C. and at or near pH 7

Row | Compound | Solubility in Water ([3]; pH 7) | also measured
1 | [Ce+4] [Ce^+4, tetravalent cerium ion] | – | oxidation-reduction potential [1]: +1.72 V
2 | [Ce+4].[OH-].[OH-].[OH-].[OH-] [Ce(OH)4, ceric hydroxide, reference compound] | – | pH after placing into deionized water of pH 7 [2]: only a minor pH change
3 | [Pr+4] [Pr^+4, tetravalent praseodymium ion] | – | calculated redox potential [1]: +3.2 V
4 | O=[N+]([O-])O.O=[N+]([O-])O.O=[N+]([O-])O.O=[N+]([O-])O.O=[N+]([O-])O.O=[N+]([O-])O.[Ce] [Ce(NO3)6^2−, hexanitratocerate (IV)] | – | pH after placing into deionized water of pH 7 [2]: −1
5 | hexavalent chromium [Cr^+6, reference compound] | – | oxidation-reduction potential [1]: +1.36 V
6 | [Tb+4] [Tb^+4, tetravalent terbium ion] | – | calculated redox potential [1]: +3.2 V
7 | [F][Ta-2]([F])([F])([F])([F])([F])[F].[Li+].[Li+] [Lithium heptafluorotantalate] | 0.5 mol/L | –
8 | [Ce+4].[O-][Cl+3]([O-])([O-])[O-].[O-][Cl+3]([O-])([O-])[O-].[O-][Cl+3]([O-])([O-])[O-].[O-][Cl+3]([O-])([O-])[O-] [Cerium (IV) perchlorate] | 1.0 × 10^0 mole/L | –
9 | O=[Se](=O)(O)O [Selenic acid] | 60 wt. % | –
10 | [Li+].[O]=[Ta](=[O])[O-] [Lithium tantalate] | 0.01 mol/L | –
11 | F[B-](F)(F)F.[K+] [Potassium tetrafluoroborate] | 0.035 mol/L | –
12 | [F][Ti-2]([F])([F])([F])([F])[F].[K+].[K+] [Potassium hexafluorotitanate] | 0.06 mol/L | –
13 | Potassium germanate | 1 × 10^0 mole/L | –
14 | Calcium vanadate | 0.5 mol/L | –
15 | O=C(O)c1ccccc1C(=O)OO [Monoperoxyphthalic acid] | 10 mol/L (≈ 1820 mg/mL) | –
16 | Cesium bromate | 0.14 mol/L | –
17 | [Cs+].[Cs+].[O]=[Mo](=[O])([O-])[O-] [Cesium molybdate] | 4.8 × 10^0 mole/L | –
18 | F[Si-2](F)(F)(F)(F)F.[Mg+2] [Magnesium hexafluorosilicate] | – | Solubility in Water [3, 4]: 3.9 × 10^0 mole/L
19 | [O-][Cl+3]([O-])([O-])O [Perchloric acid] | 75 wt. % | –
20 | [O-][Cl+3]([O-])([O-])[O-].[O-][Cl+3]([O-])([O-])[O-].[Sr+2] [Strontium perchlorate] | 13 mol/L | –

Row | Compound | Solubility in Water ([3]; pH 7) | also measured
21 | [F][Hf-2]([F])([F])([F])([F])[F].[Li+].[Li+] [Lithium hexafluorohafnate] | 0.1 mol/L | –
22 | [Li+].[Nb+5].[O-2].[O-2].[O-2] [Lithium niobate] | 0.1 mol/L | –
23 | Sodium tungstate | 249 mol/L | –
24 | [K+].[O-][I+3]([O-])([O-])[O-] [Potassium periodate] | 0.029 mol/L | –
25 | Cesium germanate | 0.5 mol/L | –
26 | [Na+].[O]=[Nb](=[O])[O-] [Sodium niobate] | 0.059 mol/L | –
27 | [Mg+2].[O]=[Mo](=[O])([O-])[O-] [Magnesium molybdate] | 0.74 mol/L | –
28 | F[Si-2](F)(F)(F)(F)F.[Ag+].[Ag+] [Silver (I) hexafluorosilicate] | 1 × 10^0 mole/L | –
29 | [F][Sn-2]([F])([F])([F])([F])[F].[Li+].[Li+] [Lithium hexafluorostannate] | 0.01 mol/L | –
30 | [O-][Cl+3]([O-])([O-])[O-].[O]=[Bi+] [Bismuthyl perchlorate] | 0.1 mol/L | –
31 | F[Si-2](F)(F)(F)(F)F.[Zn+2] [Zinc hexafluorosilicate] | 1.11 × 10^0 mole/L | –
32 | [Na+].[Na+].[O-][O-] [Sodium peroxide] | 1 × 10^0 mole/L | –
33 | [F][Nb-2]([F])([F])([F])([F])([F])[F].[Na+].[Na+] [Sodium heptafluoroniobate] | 0.05 mol/L | –
34 | [Na+].[O]=[Al-]=[O] [Sodium aluminate] | 1 × 10^0 mole/L | –
35 | Rubidium germanate | 0.5 mol/L | –
37 | F[Si-2](F)(F)(F)(F)F.[K+].[K+] [Potassium hexafluorosilicate] | – | Solubility in Water [3, 4]: 0.0055 mol/L
38 | Chloroperoxybenzoic acid | 10 mol/L | –
39 | [K+].[O-2].[O-2].[O-2].[Ta+5] [Potassium tantalate] | 0.005 mol/L | –
40 | Cesium tungstate | 5 × 10^0 mole/L | –

Row | Compound | Solubility in Water ([3]; pH 7) | also measured
41 | Rubidium periodate | 0.024 mol/L | –
42 | Potassium superoxide | 1 × 10^0 mole/L | –
43 | Rubidium hexafluorotitanate | 0.025 mol/L | –
44 | Lithium bromate | 4.85 × 10^0 mole/L | –
45 | [K+].[K+].[O]=[Sn]([O-])[O-] [Potassium stannate] | 3.7 × 10^0 mole/L | –
46 | [O-][Cl+3]([O-])([O-])O [Sodium perchlorate] | 12 mol/L | –
47 | Magnesium hexaniobate | 0.088 mol/L | –
48 | [Cs+].[Cs+].[F][Sn-2]([F])([F])([F])([F])[F] [Cesium hexafluorostannate] | 0.079 mol/L | –
49 | [Ce+3].[O-][Cl+3]([O-])([O-])[O-].[O-][Cl+3]([O-])([O-])[O-].[O-][Cl+3]([O-])([O-])[O-] [Cerium (III) perchlorate] | 2.0 × 10^0 mole/L | –
50 | O=C([O-])c1ccccc1C(=O)O[O-].[Mg+2] [Magnesium monoperoxyphthalate] | 10 mol/L | –
51 | [Cs+].[Cs+].[F][Hf-2]([F])([F])([F])([F])[F] [Cesium hexafluorohafnate] | 0.17 mol/L | –
52 | [F][Ta-2]([F])([F])([F])([F])([F])[F].[Na+].[Na+] [Sodium heptafluorotantalate] | 0.05 mol/L | –
53 | [Na+].[Na+].[O]=[Mo](=[O])([O-])[O-] [Sodium molybdate] | 215 mol/L | –
54 | [F][Sb-]([F])([F])([F])([F])[F].[NH4+] [Ammonium fluoroantimonate] | 4.7 × 10^0 mole/L | –
55 | [K+].[O]=[Al][O-] [Potassium aluminate] | 1 × 10^0 mole/L | –
56 | [Ca+2].[O-][Cl+3]([O-])([O-])[O-].[O-][Cl+3]([O-])([O-])[O-] [Calcium perchlorate] | 7.9 × 10^0 mole/L | –
57 | [Na+].[Na+].[O]=[Sn]([O-])[O-] [Sodium stannate] | 2.3 × 10^0 mole/L | –
58 | [F-].[F-].[F][Hf]([F])([F])[F].[K+].[K+] [Potassium hexafluorohafnate] | 0.13 mol/L | –
